Reference: ChEMBL document CHEMBL1201862, “PubChem BioAssay data set” (2004)
Active and inactive are the calls of the source.

How the values were obtained:
Troponin, cardiac muscle = Troponin, cardiac muscle (Homo sapiens, UniProt P19429+P45379+P63316); assay: Fluorescence-based biochemical high throughput dose response assay for activators of the calcium sensitivity of cardiac Regulated Thin Filaments (RTF). [Related pubchem assays (depositor defined):AID493008, AID493018, AID504382, AID504383]; type: protein-complex assay
cells [1] = type: functional, cell-based; details: HEK-CNG
[2] = biological target: T1, Corticotropin-releasing factor receptor 2/Corticotropin-releasing factor-binding protein (Homo sapiens, UniProt P24387+Q13324); assay: activators of CRF receptor 2 with binding protein – uHTS hits, confirmation (AID 602473); type: functional; details: read-out: EC50_Mean
T1 sequence (Q13324 whole entry): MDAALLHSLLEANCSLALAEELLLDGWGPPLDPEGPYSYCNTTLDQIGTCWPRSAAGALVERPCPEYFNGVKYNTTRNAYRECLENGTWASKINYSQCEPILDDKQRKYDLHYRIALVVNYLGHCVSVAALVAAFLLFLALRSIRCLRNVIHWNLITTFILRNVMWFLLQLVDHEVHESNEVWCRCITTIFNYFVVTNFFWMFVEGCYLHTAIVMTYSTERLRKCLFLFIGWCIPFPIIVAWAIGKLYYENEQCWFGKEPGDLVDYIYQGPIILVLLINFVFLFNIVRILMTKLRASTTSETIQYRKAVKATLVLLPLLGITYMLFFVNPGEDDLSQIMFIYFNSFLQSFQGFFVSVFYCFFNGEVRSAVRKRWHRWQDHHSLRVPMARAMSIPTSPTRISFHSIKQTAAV
T1 sequence (P24387 whole entry): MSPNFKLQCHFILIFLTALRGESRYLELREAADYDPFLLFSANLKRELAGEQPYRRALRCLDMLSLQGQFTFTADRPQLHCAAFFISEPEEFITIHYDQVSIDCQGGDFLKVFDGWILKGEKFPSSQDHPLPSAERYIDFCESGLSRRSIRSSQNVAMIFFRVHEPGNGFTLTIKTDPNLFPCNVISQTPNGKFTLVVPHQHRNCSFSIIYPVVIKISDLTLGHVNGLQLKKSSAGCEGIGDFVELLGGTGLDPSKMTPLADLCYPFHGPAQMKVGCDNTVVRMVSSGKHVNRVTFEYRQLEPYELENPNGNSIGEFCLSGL

Galanin receptor type 3 = biological target: T2, Galanin receptor type 3 (Homo sapiens, UniProt O60755); assay: Fluorescence-based cell-based primary high throughput dose response assay to identify antagonists of the Galanin Receptor 3 (GalR3).; type: functional
T2 sequence (O60755 whole entry): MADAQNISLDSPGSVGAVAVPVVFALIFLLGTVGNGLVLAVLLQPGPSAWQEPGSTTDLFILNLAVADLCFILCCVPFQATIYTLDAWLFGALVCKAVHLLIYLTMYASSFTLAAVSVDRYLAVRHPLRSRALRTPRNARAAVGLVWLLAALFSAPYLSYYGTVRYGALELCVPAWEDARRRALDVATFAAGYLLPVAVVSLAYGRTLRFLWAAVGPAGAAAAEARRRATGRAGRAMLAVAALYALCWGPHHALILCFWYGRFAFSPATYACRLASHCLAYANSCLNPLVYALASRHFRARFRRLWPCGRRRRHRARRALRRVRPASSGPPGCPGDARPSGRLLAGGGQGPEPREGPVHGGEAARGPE

CAAX prenyl protease 2 = biological target: T3, CAAX prenyl protease 2 (Saccharomyces cerevisiae S288c, UniProt Q03530); type: biochemical
T3 sequence (Q03530 whole entry): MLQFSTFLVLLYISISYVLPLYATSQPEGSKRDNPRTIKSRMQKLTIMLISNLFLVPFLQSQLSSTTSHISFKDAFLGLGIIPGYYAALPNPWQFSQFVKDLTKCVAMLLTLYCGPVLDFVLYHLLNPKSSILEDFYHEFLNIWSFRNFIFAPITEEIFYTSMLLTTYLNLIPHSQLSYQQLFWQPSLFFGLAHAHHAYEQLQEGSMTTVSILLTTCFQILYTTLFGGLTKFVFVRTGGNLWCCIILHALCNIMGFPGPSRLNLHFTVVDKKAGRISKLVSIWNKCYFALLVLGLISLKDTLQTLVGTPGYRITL

[3] = biological target: T4, Alkaline phosphatase, tissue-nonspecific isozyme (Homo sapiens, UniProt P05186); assay: potency against alkaline phosphatase TNAP – biochemical, luminescent, dose response, SAR follow-up (AID 1056)
T4 sequence (P05186 whole entry): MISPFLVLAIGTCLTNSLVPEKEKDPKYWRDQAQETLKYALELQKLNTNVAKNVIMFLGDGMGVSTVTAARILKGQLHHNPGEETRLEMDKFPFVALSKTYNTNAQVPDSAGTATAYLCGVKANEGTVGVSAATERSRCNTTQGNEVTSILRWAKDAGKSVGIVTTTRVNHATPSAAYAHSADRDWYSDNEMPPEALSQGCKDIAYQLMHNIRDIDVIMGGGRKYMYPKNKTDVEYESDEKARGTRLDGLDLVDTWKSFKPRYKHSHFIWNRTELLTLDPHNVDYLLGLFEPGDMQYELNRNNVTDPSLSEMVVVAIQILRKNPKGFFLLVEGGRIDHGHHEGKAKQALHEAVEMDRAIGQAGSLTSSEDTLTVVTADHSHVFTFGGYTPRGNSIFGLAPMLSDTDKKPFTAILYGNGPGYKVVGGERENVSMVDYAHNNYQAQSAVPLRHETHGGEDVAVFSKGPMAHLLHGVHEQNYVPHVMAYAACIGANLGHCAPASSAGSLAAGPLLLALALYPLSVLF

[4] = biological target: Glyceraldehyde-3-phosphate dehydrogenase (Homo sapiens, UniProt P04406)
[5] = Vero E6 cell cytotoxicity, dose response, cytotoxicity control for non-replicating M. tuberculosis project, secondary assay (AID 492998); type: functional, VeroE6; details: Vero C1008
[6] = HepG2 cell cytotoxicity, dose response, cytotoxicity control for non-replicating M. tuberculosis project (AID 489018); type: functional; details: Mycobacterium tuberculosis
[7] = THP-1 cell cytotoxicity, dose response, cytotoxicity control for non-replicating M. tuberculosis project (AID 489025); type: functional
cells [8] = type: functional
[9] = tested on: Streptococcus sp. 'group A'; assay: Streptococcus pyogenes SK(-)GAS viability under kanamycin – luminescence, BacTiterGlo, confirmation, counter-screen for streptokinase expression inhibitor project, dose response (AID 1900); type: functional, organism-based
Streptococcus = assay: GAS UMAA2166 growth inhibition – luminescence, BacTiterGlo, counter-screen for streptokinase expression inhibitor project, dose response (AID 1915); type: functional, organism-based;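 also: potency for reduction of bacterial viability or growth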
[10] = biological target: T5, Heat shock factor protein 1 (Mus musculus, UniProt P38532); assay: enhancement of HSF1-driven luciferase signal – cell-based, NIH3T3, luminescence, dose retest, confirmation (AID 435004); type: functional;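 also: stress induced by proteasome inhibitor MG132 added 30 min after compound; luciferase reporter driven by HSF1 response element in NIH3T3 cells; actives raise luminescence as potentiators of the MG132 stress response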
T5 sequence (P38532 whole entry): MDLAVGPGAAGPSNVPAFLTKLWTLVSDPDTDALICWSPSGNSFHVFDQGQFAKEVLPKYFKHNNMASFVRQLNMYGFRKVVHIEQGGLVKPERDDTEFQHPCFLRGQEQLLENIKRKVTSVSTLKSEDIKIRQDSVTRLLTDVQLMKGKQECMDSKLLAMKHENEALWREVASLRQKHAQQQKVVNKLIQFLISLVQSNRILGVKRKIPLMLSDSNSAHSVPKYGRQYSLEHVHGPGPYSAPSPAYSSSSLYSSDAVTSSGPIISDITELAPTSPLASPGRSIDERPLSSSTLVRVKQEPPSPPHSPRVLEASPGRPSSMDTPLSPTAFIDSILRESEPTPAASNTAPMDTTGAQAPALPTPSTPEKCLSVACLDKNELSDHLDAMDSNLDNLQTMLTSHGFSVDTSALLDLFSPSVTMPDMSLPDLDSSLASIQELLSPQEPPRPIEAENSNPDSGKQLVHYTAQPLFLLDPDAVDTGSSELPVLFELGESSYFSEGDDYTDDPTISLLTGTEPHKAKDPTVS

Trypsin = Trypsin (Sus scrofa, UniProt P00761); assay: trypsin protease activity blockade – biochemical, quenched peptide fluorescence, cherry-pick, selectivity assay for Rce1 protease inhibitor project, dose response (AID 488789)
Beta-galactosidase = Beta-galactosidase (Escherichia coli, UniProt Q8VNN2); assay: Dose response counterscreen for EBI2 assay utilizing the enzyme, b-galactosidase.; type: functional
[11] = NIH-3T3 fibroblast cytotoxicity, dose response, cytotoxicity control, cell-based, fluorescence, Alamar Blue, secondary assay (AID 2327); type: functional;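 also: NIH-3T3 mouse fibroblasts cultured with fluconazole at 8 µg/mL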
[12] = fluconazole-exposed Candida albicans growth modulators – fluorescence, retest, confirmation (AID 2467); type: functional, cell-based
[13] = biological target: T6, Microphthalmia-associated transcription factor (Homo sapiens, UniProt O75030); assay: reducers of TRPM1 reporter luminescence, concentration series – cell-based, SK-MEL-5, cherry-picked, set 3, MITF inhibitor project, dose response (AID 493073); type: functional;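 also: SK-MEL-5 melanoma cells with luciferase driven by the MITF target TRPM1 promoter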
T6 sequence (O75030 whole entry): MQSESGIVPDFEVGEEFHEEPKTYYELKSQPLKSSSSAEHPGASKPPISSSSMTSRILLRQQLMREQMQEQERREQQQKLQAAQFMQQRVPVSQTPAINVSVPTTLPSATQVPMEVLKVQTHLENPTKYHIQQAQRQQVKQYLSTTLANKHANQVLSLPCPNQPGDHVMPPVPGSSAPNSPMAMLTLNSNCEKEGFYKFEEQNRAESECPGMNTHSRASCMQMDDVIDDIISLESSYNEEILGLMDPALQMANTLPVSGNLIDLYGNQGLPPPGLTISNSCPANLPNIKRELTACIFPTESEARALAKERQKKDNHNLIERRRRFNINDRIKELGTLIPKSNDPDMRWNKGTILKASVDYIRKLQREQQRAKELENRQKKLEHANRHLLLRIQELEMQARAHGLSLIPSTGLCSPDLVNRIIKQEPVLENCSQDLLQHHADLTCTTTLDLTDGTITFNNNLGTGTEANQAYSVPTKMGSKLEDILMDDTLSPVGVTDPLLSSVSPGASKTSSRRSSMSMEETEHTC

[14] = A cytotoxicity screen of small molecule inhibitors of the PhoP region in Salmonella typhi identified in the primary screen. [Related pubchem assays: 1850, 1864, 1985 ]; type: functional
[15] = biological target: Alkaline phosphatase, placental type (Homo sapiens, UniProt P05187); assay: human placental alkaline phosphatase inhibition – biochemical, luminescence, confirmation (AID 1512); type: functional
Protein skinhead-1 = biological target: T7, Protein skinhead-1 (Caenorhabditis elegans, UniProt P34707); type: functional
T7 sequence (P34707 whole entry): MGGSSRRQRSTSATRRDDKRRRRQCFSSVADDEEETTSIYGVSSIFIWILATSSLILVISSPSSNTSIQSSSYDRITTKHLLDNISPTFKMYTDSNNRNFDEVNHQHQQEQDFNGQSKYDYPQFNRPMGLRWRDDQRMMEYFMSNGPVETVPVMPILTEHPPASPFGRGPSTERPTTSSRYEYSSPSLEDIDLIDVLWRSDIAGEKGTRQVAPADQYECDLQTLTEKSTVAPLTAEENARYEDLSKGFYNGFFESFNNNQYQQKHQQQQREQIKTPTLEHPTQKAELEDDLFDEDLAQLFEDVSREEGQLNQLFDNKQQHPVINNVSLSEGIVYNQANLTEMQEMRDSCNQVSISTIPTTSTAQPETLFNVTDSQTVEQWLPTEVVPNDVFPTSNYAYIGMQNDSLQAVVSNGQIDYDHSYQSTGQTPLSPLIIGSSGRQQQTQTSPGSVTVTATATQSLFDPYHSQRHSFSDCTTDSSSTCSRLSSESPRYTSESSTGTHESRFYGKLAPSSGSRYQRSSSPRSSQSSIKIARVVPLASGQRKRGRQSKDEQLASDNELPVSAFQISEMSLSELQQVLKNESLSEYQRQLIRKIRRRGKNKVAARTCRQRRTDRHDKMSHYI

Sequence of Alkaline phosphatase, placental type (P05187 whole entry): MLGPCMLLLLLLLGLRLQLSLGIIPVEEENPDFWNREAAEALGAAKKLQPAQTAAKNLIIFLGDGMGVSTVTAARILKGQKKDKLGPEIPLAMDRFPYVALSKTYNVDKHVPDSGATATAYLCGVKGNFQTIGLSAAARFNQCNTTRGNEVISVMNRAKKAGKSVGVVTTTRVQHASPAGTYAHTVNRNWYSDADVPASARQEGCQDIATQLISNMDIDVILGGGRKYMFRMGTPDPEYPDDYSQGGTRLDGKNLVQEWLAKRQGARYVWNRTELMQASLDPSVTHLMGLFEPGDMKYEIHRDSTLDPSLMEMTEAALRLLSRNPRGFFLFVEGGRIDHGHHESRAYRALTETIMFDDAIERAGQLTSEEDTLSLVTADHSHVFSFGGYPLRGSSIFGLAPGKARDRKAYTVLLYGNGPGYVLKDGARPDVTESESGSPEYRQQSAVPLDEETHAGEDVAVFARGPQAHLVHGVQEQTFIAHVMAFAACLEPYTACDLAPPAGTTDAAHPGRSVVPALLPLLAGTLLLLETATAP
Sequence of Glyceraldehyde-3-phosphate dehydrogenase (P04406 whole entry): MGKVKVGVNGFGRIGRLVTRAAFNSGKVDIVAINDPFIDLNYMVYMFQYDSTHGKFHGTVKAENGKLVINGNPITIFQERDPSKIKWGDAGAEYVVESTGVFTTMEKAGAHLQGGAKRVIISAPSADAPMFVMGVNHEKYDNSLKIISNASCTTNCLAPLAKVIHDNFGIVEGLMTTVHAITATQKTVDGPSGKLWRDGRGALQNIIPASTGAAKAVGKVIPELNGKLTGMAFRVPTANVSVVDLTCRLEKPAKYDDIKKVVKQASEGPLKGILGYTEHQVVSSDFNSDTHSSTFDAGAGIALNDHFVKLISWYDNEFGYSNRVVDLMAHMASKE
Sequence of Trypsin (P00761 whole entry): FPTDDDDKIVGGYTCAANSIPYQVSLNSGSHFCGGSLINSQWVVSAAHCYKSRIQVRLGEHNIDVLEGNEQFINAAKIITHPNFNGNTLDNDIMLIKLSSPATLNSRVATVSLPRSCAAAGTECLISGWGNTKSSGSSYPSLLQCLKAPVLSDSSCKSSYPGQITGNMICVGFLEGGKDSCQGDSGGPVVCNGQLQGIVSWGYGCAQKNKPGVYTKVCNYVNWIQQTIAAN
Sequence of Beta-galactosidase (Q8VNN2 whole entry): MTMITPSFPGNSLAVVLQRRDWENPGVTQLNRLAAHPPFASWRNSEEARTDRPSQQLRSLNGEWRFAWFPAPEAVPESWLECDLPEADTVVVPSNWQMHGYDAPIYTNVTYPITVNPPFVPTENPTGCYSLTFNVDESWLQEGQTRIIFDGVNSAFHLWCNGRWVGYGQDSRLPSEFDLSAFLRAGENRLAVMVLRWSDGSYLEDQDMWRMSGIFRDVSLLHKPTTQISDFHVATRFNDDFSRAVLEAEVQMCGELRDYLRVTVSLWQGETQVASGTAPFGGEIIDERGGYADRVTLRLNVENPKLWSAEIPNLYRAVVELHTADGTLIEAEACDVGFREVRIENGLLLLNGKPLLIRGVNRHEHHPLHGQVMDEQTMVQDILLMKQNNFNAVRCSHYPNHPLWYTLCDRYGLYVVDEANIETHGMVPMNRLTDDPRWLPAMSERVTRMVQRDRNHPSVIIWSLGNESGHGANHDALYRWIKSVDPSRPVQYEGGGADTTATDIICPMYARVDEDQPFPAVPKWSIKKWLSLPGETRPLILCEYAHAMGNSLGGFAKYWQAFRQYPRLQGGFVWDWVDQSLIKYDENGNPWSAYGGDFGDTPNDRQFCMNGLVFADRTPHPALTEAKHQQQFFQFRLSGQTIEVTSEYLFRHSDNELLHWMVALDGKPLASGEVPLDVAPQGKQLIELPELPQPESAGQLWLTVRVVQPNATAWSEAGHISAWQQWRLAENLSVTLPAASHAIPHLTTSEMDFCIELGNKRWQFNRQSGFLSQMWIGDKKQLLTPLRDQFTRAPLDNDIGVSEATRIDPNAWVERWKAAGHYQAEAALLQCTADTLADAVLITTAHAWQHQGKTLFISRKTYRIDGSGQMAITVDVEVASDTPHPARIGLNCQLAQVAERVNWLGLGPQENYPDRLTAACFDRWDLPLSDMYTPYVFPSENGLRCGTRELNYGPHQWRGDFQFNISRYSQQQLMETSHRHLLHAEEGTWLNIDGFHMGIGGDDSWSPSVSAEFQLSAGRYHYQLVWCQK

## Cc1cc(NC(=O)COC(=O)C(Cc2ccccc2)NC(=O)c2ccco2)no1 (stereo not given)
Troponin, cardiac muscle
  EC50: > 71.5 µM (inactive)
Cells [1]
  EC50: > 29.9 µM (inactive)
[2]
  EC50: 4.49 µM (active)
Galanin receptor type 3
  IC50: > 29.9 µM (inactive)

## O=C1CCN(Cc2ccccc2)CCN1[C@H](CSc1ccccc1)Cc1ccccc1
CAAX prenyl protease 2
  AC50: 13.9 µM (active)

## COc1ccc(OC)c(NS(=O)(=O)c2cccc3cccnc23)c1
[3]
  IC50: > 100 µM (inactive)
[4]
  IC50: > 100 µM (not active)

## CCOC(=O)Cc1c(C)nc2c(-c3cccc(Br)c3)cnn2c1O
[5]
  CC50: 8.15 µM (active)
[6]
  CC50: 16.4 µM (active)
[7]
  CC50: 11.9 µM (active)
Cells [8]
  IC50: 3.08 µM (active)
[9]
  EC50: 3.46 µM (active)
Streptococcus
  EC50: 6.07 µM (active)

## CCOC(=O)c1sc2nc(C)nc(SCC(=O)NC3CCS(=O)(=O)C3)c2c1C (stereo not given)
Troponin, cardiac muscle
  EC50: > 71.5 µM (inactive)
[10]
  EC50: > 260 µM (inactive)

## COc1ccc(C(C(=O)NC2CCCCC2)N(C(=O)c2snc(C(N)=O)c2N)c2ccc(OC)cc2OC)cc1 (stereo not given)
Trypsin
  AC50: 21.6 µM (active)
CAAX prenyl protease 2
  AC50: 22.1 µM (active)
Beta-galactosidase
  IC50: > 80 µM (inactive)

## COc1cc(OC)cc(C(=O)Oc2c(CN3CCOCC3)cc(Cl)c3cccnc23)c1
[5]
  CC50: 3.74 µM (active)
[6]
  CC50: 17 µM (active)
[7]
  CC50: 7.27 µM (active)
Cells [8]
  IC50: 15.4 µM (active)
[11]
  EC50: > 150 µM (inconclusive)
[12]
  EC50: 2.94 µM (active)

## O=C(Cn1cc(/C=C\[N+](=O)[O-])c2ccccc21)Nc1ccccc1
[13]
  AC50: 7.45 µM (active)
[14]
  EC50: > 50 µM (active)

## O=C(CN1CCCCC1)c1ccc(O)c(O)c1
[3]
  IC50: 43.2 µM (active)
[15]
  IC50: 67.5 µM (active)

## CCN(CC)c1ccc(/C=c2\sc3nc4ccccc4n3c2=O)c(O)c1
Protein skinhead-1
  IC50: > 100 µM (inactive)
Troponin, cardiac muscle
  EC50: 2.78 µM (active)
